system: immunoresponse; assay: not given; settings: Japanese Patent Laid-Open Publication No. 117435/1977; cited from earlier work

Row | Compound | effect to immunoresponse such as delayed hypersthesia | in vivo defense mechanism
1 | CC(C)C[C@H](NC(=O)[C@@H](O)[C@H](N)Cc1ccccc1)C(=O)O [bestatin, (2S,3R)-3-amino-2-hydroxy-4-phenylbutanoyl-(S)-leucine] | increasing effect to immunoresponse such as delayed hypersthesia | activate in vivo defense mechanism

target: T1, aminopeptidase B (Rattus norvegicus, UniProt O09175); assay: Inhibitory Activity to Aminopeptidase B; type: biochemical; settings: pH 7.0, 37° C., 30 minutes, substrate arginine-β-naphthylamide; read-out: IC50 (50% inhibitory ratio) (converted)
T1 construct: an aminopeptidase B solution purified by the same enzyme purification process as in the process by Hopsu et al; from tissue
T1 sequence (O09175 1-650): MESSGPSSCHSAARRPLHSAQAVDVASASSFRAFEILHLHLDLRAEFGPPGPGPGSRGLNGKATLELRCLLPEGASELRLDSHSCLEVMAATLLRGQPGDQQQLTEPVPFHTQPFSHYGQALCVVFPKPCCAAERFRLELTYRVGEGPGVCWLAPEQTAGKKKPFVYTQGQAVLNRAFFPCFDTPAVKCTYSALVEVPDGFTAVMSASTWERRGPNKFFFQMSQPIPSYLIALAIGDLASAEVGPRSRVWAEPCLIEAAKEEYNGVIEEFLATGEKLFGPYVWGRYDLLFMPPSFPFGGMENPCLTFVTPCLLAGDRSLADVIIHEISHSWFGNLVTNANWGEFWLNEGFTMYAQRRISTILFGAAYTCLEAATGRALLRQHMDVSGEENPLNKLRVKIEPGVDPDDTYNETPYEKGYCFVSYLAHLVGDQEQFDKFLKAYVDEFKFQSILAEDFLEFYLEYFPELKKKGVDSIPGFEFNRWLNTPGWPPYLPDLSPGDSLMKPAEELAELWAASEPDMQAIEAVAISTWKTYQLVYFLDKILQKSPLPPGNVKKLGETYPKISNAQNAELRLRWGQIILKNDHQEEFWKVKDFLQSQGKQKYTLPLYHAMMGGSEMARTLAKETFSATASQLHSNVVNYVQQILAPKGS
Description: Measurement for the inhibitory activity to aminopeptisase B was conducted by the method reported by Hopsu et al. while somewhat modifying the process [V. K. Hopsu, K. K. Makinen, G. G. Glenner; Archives of Biochemistry and Biophysics, 114, 557 (1966)].
A mixed solution (pH 7.0) prepared by adding 1.0 ml of a 0.1 M tris-hydrochloric acid buffer solution and 0.7 ml of a solution containing a test specimen to 0.3 ml of 0.1 mM arginine-β-naphthylamide was heated at 37° C. for 4 minutes. Thereafter, 0.2 ml of an aminopeptidase B solution purified by the same enzyme purification process as in the process by Hopsu et al. using Sephadex G-100 (registered Trademark) was added and reacted at 37° C. for 30 minutes. Then, 0.6 ml of a 1.0 M acetic acid buffer solution (pH 4.2) containing Garnet GBC (o-aminoazotoluenediazonium salt) at 1.0 mg/ml concentration and containing Tween 20 (registered trademark) at 1.0% concentration was further added and left for 15 minutes at room temperature, after which absorption ratio (a) at 530 nm was measured. The absorption ratio (b) for the blind solution using only the buffer solution containing no specimen was simultaneously mesured, and the inhibitory ratio to aminopeptidase B was calculated as (b-a)/b×100.
Inhibitory ratios for each of the specimens at several concentrations were determined by the above test method, from which 50% inhibitory ratios (IC50) were deduced.

Row | IC50 [nM] | Compound
2 | 1630 | CC(C)C[C@H](NC(=O)C(O)C(N)Cc1ccccc1O)C(=O)O (stereo partly drawn) [No. 15, Threo-(2RS)-3-amino-2-hydroxy-4-(2-hydroxyphenyl)butanoyl-(S)-leucine]
3 | 5290 | CC(C)C[C@H](NC(=O)C(O)C(N)Cc1ccc(O)c(O)c1)C(=O)O (stereo partly drawn) [No. 9, Threo-(2RS)-3-amino-2-hydroxy-4-(3,4-dihydroxyphenyl)butanoyl-(S)-leucine]
4 | 83.7 | CC[C@H](C)[C@H](NC(=O)C(O)C(N)Cc1ccc2ccccc2c1)C(=O)O (stereo partly drawn) [No. 13, Threo-(2RS)-3-amino-2-hydroxy-4-(2-naphthyl)butanoyl-(S)-isoleucine]
5 | 8570 | COc1ccccc1CC(N)C(O)C(=O)N[C@@H](CC(C)C)C(=O)O (stereo partly drawn) [No. 2, Threo-(2RS)-3-amino-2-hydroxy-4-(2-methoxyphenyl)butanoyl-(S)-leucine]
6 | 216 | COc1ccc(C[C@@H](N)[C@H](O)C(=O)N[C@H](C(=O)O)C(C)C)cc1 [No. 14, (2S,3R)-3-amino-2-hydroxy-4-(4-methoxyphenyl)butanoyl-(S)-valine]
7 | 18600 | CC(C)C[C@H](NC(=O)C(O)C(N)Cc1ccc(OC(C)C)cc1)C(=O)O (stereo partly drawn) [No. 10, Threo-(2RS)-3-amino-2-hydroxy-4-(4-iso-propoxyphenyl)butanoyl-(S)-leucine]
8 | 118 | COc1cccc(CC(N)C(O)C(=O)N[C@@H](CC(C)C)C(=O)O)c1 (stereo partly drawn) [No. 3, Threo-(2RS)-3-amino-2-hydroxy-4-(3-methoxyphenyl)butanoyl-(S)-leucine]
9 | 4180 | CC(C)C[C@H](NC(=O)C(O)C(N)Cc1cccc2ccccc12)C(=O)O (stereo partly drawn) [No. 4, Threo-(2RS)-3-amino-2-hydroxy-4-(1-naphthyl)butanoyl-(S)-leucine]
10 | 342 | CC(C)C[C@H](NC(=O)C(O)C(N)Cc1ccc(C(C)C)cc1)C(=O)O (stereo partly drawn) [compound 7]
11 | 91.9 | CC(C)C[C@H](NC(=O)C(O)C(N)Cc1ccc(F)cc1)C(=O)O (stereo partly drawn) [No. 12, Threo-(2RS)-3-amino-2-hydroxy-4-(4-fluorophenyl)butanoyl-(S)-leucine]
12 | 9360 | CC(C)C[C@H](NC(=O)C(O)C(N)Cc1ccc(-c2ccccc2)cc1)C(=O)O (stereo partly drawn) [No. 6, Threo-(2RS)-3-amino-2-hydroxy-4-(4-phenylphenyl)butanoyl-(S)-leucine]
13 | 279 | CC(C)C[C@H](NC(=O)C(O)C(N)Cc1ccc2ccccc2c1)C(=O)O (stereo partly drawn) [No. 5, Threo-(2RS)-3-amino-2-hydroxy-4-(2-naphthyl)butanoyl-(S)-leucine]
14 | 17.7 | COc1ccc(C[C@@H](N)[C@H](O)C(=O)N[C@@H](CC(C)C)C(=O)O)cc1 [No. 1, (2S,3R)-3-amino-2-hydroxy-4-(4-methoxyphenyl)butanoyl-(S)-leucine]
15 | 277 | CC(C)C[C@H](NC(=O)C(O)C(N)Cc1cccc(O)c1)C(=O)O (stereo partly drawn) [No. 16, Threo-(2RS)-3-amino-2-hydroxy-4-(3-hydroxyphenyl)butanoyl-(S)-leucine]
16 | 7680 | CC(C)Cc1ccc(CC(N)C(O)C(=O)N[C@@H](CC(C)C)C(=O)O)cc1 (stereo partly drawn) [No. 8, Threo-(2RS)-3-amino-2-hydroxy-4-(4-iso-butylphenyl)butanoyl-(S)-leucine]

Row | Compound | IC50 [nM]
17 | CC(C)COc1ccc(CC(N)C(O)C(=O)N[C@@H](CC(C)C)C(=O)O)cc1 (stereo partly drawn) [No. 11, Threo-(2RS)-3-amino-2-hydroxy-4-(4-iso-butoxyphenyl)butanoyl-(S)-leucine] | 11800

system: not given; assay: not given; settings: isolated from culture filtrates of Streptomyces olivoreticuli; cited from earlier work

Row | Compound | toxicity
18 | CC(C)C[C@H](NC(=O)[C@@H](O)[C@H](N)Cc1ccccc1)C(=O)O [bestatin, (2S,3R)-3-amino-2-hydroxy-4-phenylbutanoyl-(S)-leucine] | least toxic

system: cancer; assay: not given; settings: Japanese Patent Laid-Open Publication No. 117435/1977; cited from earlier work

Row | Compound | effects for cancer
19 | CC(C)C[C@H](NC(=O)[C@@H](O)[C@H](N)Cc1ccccc1)C(=O)O [bestatin, (2S,3R)-3-amino-2-hydroxy-4-phenylbutanoyl-(S)-leucine] | inhibitive effects for cancer

target: T1, aminopeptidase B; assay: not given; settings: U.S. Pat. No. 4,029,547; cited from earlier work

Row | Compound | aminopeptidase B inhibitor
20 | CC(C)C[C@H](NC(=O)[C@@H](O)[C@H](N)Cc1ccccc1)C(=O)O [bestatin, (2S,3R)-3-amino-2-hydroxy-4-phenylbutanoyl-(S)-leucine] | aminopeptidase B inhibitor
